Experimental data reported in paper PMC7867085, “In Vitro and In Vivo Antitumor Activity of Indolo[2,3-b] Quinolines, Natural Product Analogs from Neocryptolepine Alkaloid” (Molecules, 2021).

Columns and labels:
[1] = test system: MG-63 cells; design: method as in PMID 18951804, PMID 2953123; conditions: ref [34],[35]; cited from earlier work
[2] = test system: solid-tumor (EAC) bearing mice (liver homogenate); experiment: Lipid peroxidation and antioxidant enzymes in liver homogenate of solid-tumor bearing mice; format: in vivo, Swiss female albino mice; conditions: 100 mg/kg for 5 days, liver
Protocol: Measuring antioxidant enzyme levels and lipid peroxidation was utilized to evaluate the pharmacological effect of indoloquinoline derivatives. The study group was divided into two subgroups, normal mice and tumor-bearing mice. Each subgroup is further subdivided into two groups, one group received indoloquinoline derivatives, and the other group was marked as a placebo group.
After administration of indoloquinoline analogs 6a, 6b, 6c and 6d at a dose of 100 mg/kg for 5 constitutive days to mice with EAC, the levels of lipid peroxidation were highly significant less than that of the positive control group (p < 0.001). Meanwhile, the level of SOD in the liver homogenate of positive bearing mice was 32.1% (p < 0.001) less than that of the normal group (Table 5).
The eradicated liver was double washed first, with ice-cold normal saline then, with cold 0.15 mol/L Tris-HCl buffer (pH 7.4). The clean organ was dried and weighed, and used to prepare a 10% w/v homogenate in 0.15 mol/L Tris-HCl buffer. A portion of the prepared homogenate was centrifuged at 1500 rpm for 15 min at 4 °C [47] and used for estimating lipid peroxidation, SOD [48] and CAT [49] analysis was carried out using the supernatant.

[3] = test system: Ehrlich ascites carcinoma (EAC) cells; experiment: In vitro cytotoxic activity, trypan blue dye exclusion; format: cell-based, mice; conditions: Mus musculus, Ehrlich, 3 h incubation at 37 °C
Protocol: The synthesized indoloquinoline analogs 6a–d were evaluated for their cytotoxic activity against Ehrlich ascites carcinoma (EAC), as depicted in Table 1. The EAC cells used in this study were supplied by National Cancer Institute, Cairo, Egypt. The cells were maintained in vivo in Swiss Albino female mice by intraperitoneal transplantation (0.2 mL of 2 × 10^6 cells/mL). EAC cells were aspirated from the peritoneal cavity of mice, washed with saline and given intraperitoneally to develop ascites tumor. Trypan blue dye exclusion technique was used to figure the viability percentage of EAC cells to assay the cytotoxic activity of the studied compounds. In brief, under completely sterile conditions, EAC cells were separated away from the mice abdomens. Hank’s balanced salt solution (HBSS) was used to wash the separated cells. Cells were put in a cooling centrifuge at 1500 rpm for 15 min; the produced granules were put back into suspension using HBSS, the mentioned steps were done in triplicate. Finally, a measured volume of RPMI 1640 was used to suspend the cells, followed by the addition of 10% fetal bovine serum, 10 µg/mL streptomycin and 100 U/mL penicillin. Consequently, the cell count was adjusted to 2 × 10^6 cells/mL from the prepared diluted cell suspension 0.2 mL was titrated in 96 flat-bottomed tissue culture plates. Serial concentrations of each tested compound were prepared and added in triplicate and incubated at 37 °C for 3 h in a 5% CO2 atmosphere. The IC50 parameter (half-maximum inhibitory concentration) was calculated using Trypan blue dye exclusion test, and then the cytotoxic effect was evaluated using control EAC cells. Thalidomide was used as a reference drug alongside the parent natural compound neocryptolepine I for comparison. Thalidomide was used as a reference drug because its mechanism of action is expected to be similar to the mechanism of action of neocryptolepine analogs as its anticancer action may be based on its antiangiogenic action, resulting from specific DNA intercalation as well as induce cell cycle arrest.
The percentage of EAC cell death of the synthesized derivatives was evaluated by trypan blue exclusion assay. In addition, the compounds 6a–d, as well as the reference drug thalidomide and the parent natural compound neocryptolepine (I), were evaluated through eight concentration levels. It is worth noting that this cytotoxicity was dose-dependent when compared to the reference drug, thalidomide and the control, which was treated with the corresponding dilutions of DMSO.
As a preparation step to perform cytotoxicity assay against the EAC cell line, thalidomide, parent neocryptolepine and the indoloquinoline compounds a 6a, 6b, 6c and 6d were dissolved in DMSO/saline (0.3:0.7) to prepare a solution of 10 mmol concentration. The stock solutions were stored at 4 °C and were used all over the assay. EAC cells were supplied by the National Cancer Institute, Cairo, Egypt. The cells were maintained in vivo in Swiss albino female mice by intraperitoneal transplantation (0.2 mL of 2 × 10^6 cells/mL). EAC cells were aspirated from the peritoneal cavity of mice, washed with saline, and given intraperitoneally to develop ascites tumor.
Trypan blue dye exclusion technique was used to figure the viability percentage of EAC cells to assay the cytotoxic activity of the studied compounds. In brief, under completely sterile conditions, EAC cells were separated away from the mice’s abdomen. Hank’s balanced salt solution (HBSS) was used to wash the separated cells. The cells were put in a cooling centrifuge at 1500 rpm for 15 min; the produced granules were put back into suspension using HBSS, the mentioned steps were done in triplicate. Finally, a measured volume of RPMI 1640 was used to suspend the cells, followed by the addition of 10% fetal bovine serum, 10 µg/mL streptomycin and 100 U/mL penicillin and the cell count was adjusted to 2 × 10^6 cells/mL. […]

[4] = test system: EAC-induced solid tumor; experiment: Antitumor activity: reduction in tumor volume of EAC-induced solid tumor; format: in vivo, Swiss female albino mice; conditions: day 12 (last day of treatment), 100 mg/kg SC daily for five consecutive days
Protocol: The aim of this study is to characterize indoloquinoline analogs 6a–d curative ability and antineoplastic activity on solid-form of Ehrlich tumors. Tumor volume is a potential biomarker for Ehrlich tumor development. The induction of solid tumor in Swiss female mice performed by inserting 0.2 mL of EAC cells (2 × 10^6 cell/mL) subcutaneously (SC) between thighs of the lower limb. When the tumor volume reached 15–20 mm^3 (Seven days after tumor induction), the mice were randomly divided into 6 groups (n = 10), five groups were injected subcutaneously with thalidomide and indoloquinoline analogs 6a–d (100 mg/kg) daily for five consecutive days, the sixth group (positive control group) were given DMSO/saline (0.3/0.7). The 8th day is considered the zero days of treatment. The tumor volume was daily measured with a vernier caliper for four days stated from day eight.
Thalidomide and indoloquinoline derivatives 6a–d were tested for their antitumor effect; the test was done in vivo on mice-bearing solid tumors. The induction of solid tumor in Swiss female mice performed by inserting 0.2 mL of EAC cells (2 × 10^6 cell/mL) subcutaneously (SC) between thighs of the lower limb. Seven days after tumor induction, animals were divided into 6 groups (n = 10), five groups were injected subcutaneously with 100 mg/kg of tested compounds daily for 5 consecutive days, the sixth group (positive control group) were given 0.3 DMSO/0.7 H2O. On day twelve, after carrying out EAC cells, mice were sacrificed, dissected, and change in tumor mass was evaluated by measuring the developed tumor mass volume using the formula [45, 46]:Tumor volume (mm^3) = 0.52 × length × (width)^2.(1)

[5] = DPPH free radical scavenging assay; conditions: means ± SD (n = 3); amount needed to scavenge 50% of DPPH radicals
Protocol: Over-production and the accumulation of free radicals inside the body leads to a phenomenon known as oxidative stress, which causes many serious diseases such as cancer, cardiovascular, and inflammation. Moreover, the harmful effects of this phenomenon can be reduced via using antioxidant compounds as free radical scavengers. Therefore, free radical scavenging capabilities were determined for all compounds by 2,2-diphenyl-1-picrylhydrazyl (DPPH) assay using ascorbic acid (AA) as standard for comparison. The DPPH reducing capabilities of the synthetic analogs 6a–d were evaluated by determining their IC50 values. […] The IC50 value corresponds to the concentration of a sample, which has the ability to scavenge 50% of the free radicals present in the reaction mixture. Low IC50 values indicate that the compound in the sample has high antioxidant activity. […] At the same time, the analog 6c with pyrimidine moiety had the lowest antioxidant activity (9.2 × 10^−5 µM). […]
To 1 mL of various concentrations of ascorbic acid, neocryptolepine and indoloquinoline analogs prepared from methanol, 1 mL solution of DPPH, 0.1 mM was added. […] After 20 min incubation in the dark, absorbance was recorded at 517 nm. […] The percentage scavenging of the extract was calculated.

For `O=C1CCC(N2C(=O)c3ccccc3C2=O)C(=O)N1` (centres unmarked) [Thalidomide, reference compound], the “effect on cell cycle” value [1] is listed as “induced cell cycle arrest by increasing the number of cells in the G0/G1 phase and decreasing the percentage of S phase”, the CAT [2] is listed as 5.8 ± 1.5 KU/mg Tissue/s and the “Lipid Peroxidation” value [2] is listed as 330.2 ± 8.1 nmol MDA/g Tissue. For the same compound, the SOD [2] was 108.4 ± 10.2 U/g Tissue, the IC50 [3] was 0.26 nM and the “reduction percentage in tumor volume” value [4] was 67.20%.

`Cn1c2nc3ccccc3c-2cc2ccccc21` [Neocryptolepine, 5-methyl-5H-indolo[2,3-b] quinoline] showed an IC50 [3] of 0.54 nM.

For `O=C1O[C@H]([C@@H](O)CO)C(O)=C1O` [Ascorbic acid, ascorbic acid], the IC50 [5] was 0.042 nM.
